# According to patent US20040072746A1, “Inhibitors of monocarboxylate transport” (priority 2001, published 2004):
# Where two headings read alike, the source gives them in different places.
# What was measured:
# [1] = biological target: T1, MCT1 with a streptavidin-binding sequence tag (Homo sapiens, UniProt P53985, D490E); assay: Yeast membrane MCT1-strep tagged SPA assay (125I ligand A); settings: 0.1 nM 125I ligand A
# T1 construct: The invention is not restricted to the use of full-length native human MCTs; made in house; host or cells: Saccharomyces cerevisiae BY4742 (jen1 deletion), membrane preparation; plasmid pACES14-MCT1-strep tag
# T1 sequence (P53985 1-500 D490E): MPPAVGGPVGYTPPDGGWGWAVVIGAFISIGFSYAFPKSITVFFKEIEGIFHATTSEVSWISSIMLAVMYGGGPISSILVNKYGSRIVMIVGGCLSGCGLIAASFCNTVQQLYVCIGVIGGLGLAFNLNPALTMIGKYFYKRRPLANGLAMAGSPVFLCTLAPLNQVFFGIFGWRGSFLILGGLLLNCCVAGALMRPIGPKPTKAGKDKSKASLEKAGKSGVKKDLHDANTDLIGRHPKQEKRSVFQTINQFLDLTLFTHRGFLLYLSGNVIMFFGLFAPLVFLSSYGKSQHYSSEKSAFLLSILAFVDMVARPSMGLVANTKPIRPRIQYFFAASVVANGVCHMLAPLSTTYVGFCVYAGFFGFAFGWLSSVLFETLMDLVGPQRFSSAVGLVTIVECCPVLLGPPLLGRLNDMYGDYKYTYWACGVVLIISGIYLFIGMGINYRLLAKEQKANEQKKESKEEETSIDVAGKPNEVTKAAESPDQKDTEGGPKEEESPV
# Procedure: Yeast membranes expressing MCT1 with a streptavidin-binding sequence tag were then added to give a final concentration of 37 μg/ml protein and gently rolled for >30 minutes at room temperature. The beads/membranes were then washed by centrifugation at ˜650 g for 10 minutes and resuspended in assay buffer+0.05% BSA. The washing was repeated once before resuspended in the appropriate volume of assay buffer+0.05% BSA.
# Finally, 80 μl of the membrane/bead suspension was added to each well. […] The raw counts were analysed by averaging replicates, subtraction of non-specific binding and the subsequent calculation of % inhibition of binding of the iodinated ligand.
# MCT1 = biological target: T2, MCT1 (Homo sapiens, UniProt P53985, D490E); assay: Yeast expressed MCT1 filter binding assay (competition with 3H-ligand C); set-up: The invention is not restricted to the use of full-length native human MCTs; made in house; host or cells: Saccharomyces cerevisiae BY4742 (jen1 deletion), membrane preparation; plasmid pACES14-hMCT1; settings: yeast membrane MCT1 filter binding, 2.5 nM 3H-ligand C
# T2 sequence (P53985 1-500 D490E): T1 sequence (P53985 1-500 D490E)
# Procedure: Assay to Measure the Potency of Selected Compounds Using a Filter Binding Assay
# Competition assays can be used to measure the affinity of unlabelled compound for MCT1. […] 180 μl of yeast membranes expressing MCT1 in assay buffer containing typically 0.5 to 1 μg total protein was added to start the reaction. […] The competition assay was incubated at 2 hours at room temperature with shaking. Experimental data points were usually carried out in triplicate. The membranes were harvested onto GF-B filter plates and washed with assay buffer without BSA, dried, scintillant added and counts detected using a tritium program on a Packard Top Count plate reader. The results were analysed by subtraction of the non-specific binding from each of the experimental points and then fitting a sigmoidal curve through a semi-log plot of the data in Microcal Origin.
# activated T-lymphocytes [2] = assay: Extracellular lactate levels in activated T-lymphocytes (lactate oxidase); format: cell-based, human
# Procedure: (§1) PBMCs were prepared as described above by separation over Lymphoprep and T-lymphocytes were then enriched by purification on a nylon wool column. Briefly, 0.6 g nylon wool was inserted into a 10 ml syringe and this was autoclaved. […] The PBMC were resuspended in 1 ml of pre-warmed RPMI (20% HS) and were loaded onto the nylon wool column. The column was incubated for 45 min at 37° C. followed by elution of the T-cells by adding 10 ml RPMI (20% HS) (prewarmed to 37° C.) dropwise to the column. The T-cells obtained from the elution of the column were centrifuged (850 g for 5 min) and resuspended in RPMI containing L-glutamine and 5% human serum and stimulated with 0.5 ng/ml PMA and 500 ng/ml lonomycin for 48 h.
# 20 μl of each concentration were added to triplicate wells of a 96-well plate. T-cells were then added (200 μl per well, 2×10^5 cells) and were cultured for 4 h under standard cell culture conditions. The cell supernatants were collected from each well after the cells were pelleted by centrifugation of the plate at 850 g for 5 min at 4° C. 10 μl of each supernatant sample were used for the lactate determination.
# (§2) The assay was carried out in 96-well plates at room temperature. 10 μl of standard or sample were added to each well followed by 200 μl of the Lactate Reagent. […] The data were collected and analysed using SOFTmax PRO software (Molecular Devices).
# activated T-lymphocytes [3] = assay: Intracellular lactate levels in activated T-lymphocytes (lactate oxidase); format: cell-based; settings: Homo sapiens, T-lymphocyte; Mean±s.e.mean (mean±range for n=2); read-out: pIA50 Intracellular Lactate (converted)
# Procedure: as §1
# 100 μl of each concentration were added to triplicate wells of a 24-well plate. T-cells were then added (1 ml per well) and were cultured for 4 h under standard cell culture conditions. The cells were then transferred from each well to microfuge tubes and were centrifuged at 360 g for 5 min at 4° C. The supernatant was discarded and the cell pellet was resuspended in 1 ml of ice-cold PBS, pH5.0. The cells were washed twice in PBS by centrifugation (360 g, 5 min, 4° C.) followed by resuspension of the cell pellet in 100 μl deionized water. The cells were incubated for 15 min at 4° C. to allow cell lysis to occur and the cell debris was removed by centrifugation at 15000 g for 10 min at 4° C. 10 μl of each supernatant sample were used for the lactate determination.
# as §2
# IgE production = assay: Inhibition of murine antibody production, IgE (ovalbumin immunised); format: in vivo, Balb/c mice; settings: 10 days following antigenic boost
# Procedure: Balb/c mice were immunised with 0.5 mg/kg ovalbumin (OVA) and 200 mg/kg aluminium hydroxide gel in saline intraperitoneally and left for 29 days before being re-challenged intraperotoneally with 0.5 mg/kg ovalbumin in buffered saline vehicle and left for a further 10 days. Compound was dosed daily from re-challenge to termination prior to serum collection. Control groups were dosed with compound vehicle only. On completion of dosing, serum samples were taken from the mice and analysed for total and specific levels of IgE.
# For total IgE, microtitre plates were coated with 5 ug/ml monoclonal rat anti-mouse IgE in phosphate buffered saline (PBS) and incubated overnight at 4° C. The plates were then washed four times with PBS containing 0.05% Tween 20 and then blocked with 1% BSA in PBS at room temperature for 2 hours. This was followed by two further plate washings.
# The serum samples and IgE standards were added to the wells in duplicate and incubated overnight. The plates were then washed a further four times before adding 50 ul biotinylated monoclonal rat anti-mouse IgE appropriately diluted in 0.1% BSA in PBS for 2 hours. The plate was washed for a further four times before adding 50 ul streptavidin alkaline phosphatase conjugate appropriately diluted in 1% BSA in PBS at room temperature for 50 minutes. The plate was washed a further four times before enzyme substrate (paranitrophenyl phoshate in 1M diethanolamine buffer pH 9.8) at 1 mg/ml was added. Once the colour reaction developed, the plate was read at 405 nm. Levels of total IgE in serum samples were extrapolated from curve obtained with IgE standards.
# For specific IgE, the methodology was similar except for the following. The microtitre plates were coated with 50 ug/ml rat anti-mouse IgE. The serum samples or normal control sera were added to the washed plates. Biotinylated OVA diluted in 0.1% BSA in PBS was used as enzyme marker.
# IgG2a production = assay: Inhibition of murine antibody production, IgG2a (ovalbumin in poly I:C); format: in vivo, Balb/c mice; settings: Mus musculus, sc, 168 h, subcutaneous, 7 days following antigenic boost
# Procedure: To measure the effect of the compound on IgG2a production, Balb/c mice were immunised with ovalbumin in poly I:C adjuvant (polyinosinic:polycytidylic acid adjuvant) and left for 14 days before being re-challenged with ovalbumin in buffered saline vehicle and left for a further 7 days. Serum samples were taken from the mice and analysed for total and specific IgG2a. Compound was dosed daily from re-challenge to termination prior to serum collection. For total IgG2A, microtitre plates were coated with 5 ug/ml of goat anti-mouse IgG2a in PBS and incubated overnight at 4° C. The plates were then washed four times with PBS containing 0.05% Tween 20 and then blocked with 1% BSA at room temperature for 2 hours. This was followed by two further plate washings. The serum samples and IgG2a standards were added to the wells in duplicate and incubated at 4° C. overnight. The plates were then washed a further four times before adding 50 ul alkaline phosphatase conjugated goat anti-mouse IgG appropriately diluted in 0.1% BSA in PBS and left at room temperature for an hour. The plate was washed a further four times before enzyme substrate (p-nitrophenyl phosphate in 1M diethanolamine buffer pH 9.8) at 1 mg/ml was added. Once the colour reaction developed, the absorbance of the wells at 405 nm was read in a spectrophotometer. […]
# rat MCT1 = biological target: T3, rat MCT1 (Rattus norvegicus, UniProt P53987); settings: cited from earlier work
# T3 sequence (P53987 1-494): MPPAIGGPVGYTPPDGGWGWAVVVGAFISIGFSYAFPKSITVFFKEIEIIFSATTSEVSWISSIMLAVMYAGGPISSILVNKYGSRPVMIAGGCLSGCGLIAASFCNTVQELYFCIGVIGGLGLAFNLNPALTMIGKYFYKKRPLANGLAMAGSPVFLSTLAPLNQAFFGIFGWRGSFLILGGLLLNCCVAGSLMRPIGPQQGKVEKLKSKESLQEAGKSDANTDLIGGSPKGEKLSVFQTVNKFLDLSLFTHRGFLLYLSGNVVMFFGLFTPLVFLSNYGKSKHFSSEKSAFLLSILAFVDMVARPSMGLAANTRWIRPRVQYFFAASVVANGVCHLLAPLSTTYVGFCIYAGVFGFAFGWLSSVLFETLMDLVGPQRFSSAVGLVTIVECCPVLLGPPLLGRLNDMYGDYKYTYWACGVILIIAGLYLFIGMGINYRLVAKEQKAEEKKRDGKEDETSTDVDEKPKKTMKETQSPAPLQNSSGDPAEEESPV
# activated T-lymphocytes [4] = assay: DNA synthesis ([3H]-thymidine incorporation) in activated T-lymphocytes; format: cell-based; settings: Homo sapiens, T-lymphocyte; Mean±s.e.mean (mean±range for n=2); read-out: pIA50 DNA (converted)
# Procedure: as §1
# DNA synthesis was assessed by measuring the incorporation of [^3H]-thymidine. The assay was carried out in a 96-well plate. 20 μl of test compounds at 10× the final concentration were added to the plate followed by 200 μl of T-cells per well (2×10^5 cells). The cells were cultured for 4 h under standard cell culture conditions and cultures were pulsed with ^3H-thymidine (0.5 μCi/well; Amersham) for the final hour of the incubation.
# [5] = test system: peripheral blood mononuclear cells (PBMC); assay: T-lymphocyte proliferation, PMA/ionomycin stimulated PBMC, 3 days; settings: Homo sapiens, 72 h, read-out: pIA50 Proliferation (3 days) (converted)
# Source text: The cell signalling pathways triggered by T-cell activation through the T cell receptor and CD28 can be mimicked in vitro using a phorbol ester, phorbol 12-myristate 13-acetate (PMA), which activates protein kinase C, and ionomycin, which induces calcium release from internal cellular stores. PMA and ionomycin-stimulated proliferation of peripheral blood mononuclear cells (PBMC), of which the predominant cell type is T-lymphocytes, provides a suitable assay for measuring the ability of small molecules to block T-cell proliferation.
# Blood was centrifuged at 850 g for 10 minutes and the plasma was removed. […] The blood/Lymphoprep layers were centrifuged at 850 g for 20 minutes at 18° C. (with no brake).
# 10 μl of compound in solution was then added to the 96-well flat bottom assay plate (final volume of 200 μl). […] Both were diluted to 4× the final assay concentration in complete medium. 50 μl of each reagent was dispensed per well to give a final assay concentration of 0.5 ng/ml PMA and 500 ng/ml ionomycin. Control wells received 100 μl cells with PMA only (negative control 1), with ionomycin only (negative control 2) and 100 μl cells with 50 μl PMA and 50 μl ionomycin with no test compound (positive control). 100 μl complete medium was added to the negative controls. […]
smiles,measurement,setting,value
"CC(C)Cn1c(=O)n(C)c(=O)c2cc(Cc3nc4ccccc4s3)sc21 [Ligand 4, 6-([benzothiazol-2-yl]methyl)-3-methyl-1-(2-methylpropyl)thieno[2,3-d]pyrimidine-2,4(1H,3H)-dione]",IC50,[1],32.2 nM
same,IC50,MCT1,787 nM
"CC(C)Cn1c(=O)n(C)c(=O)c2c(SCCCO)c(Cc3cccc4ccccc34)sc21 [Ligand 1, 5-[(3-hydroxypropyl)thio]-3-methyl-1-(2-methylpropyl)-6-(1-napthalenylmethyl)thieno[2,3-d]pyrimidine-2,4(1H,3H)-dione]","maximum level of inhibition, extracellular lactate",activated T-lymphocytes [2],30±1.9%
same,EC50,activated T-lymphocytes [3],0.407 nM
same,inhibition of OVA specific IgE,IgE production; 3 mg/kg subcutaneous,64%
same,inhibition of total IgE,IgE production; 3 mg/kg subcutaneous,67%
same,inhibition of OVA specific IgE,IgE production; 30 mg/kg subcutaneous,53%
same,inhibition of total IgE,IgE production; 30 mg/kg subcutaneous,84%
same,ED50,"IgG2a production; read-out: ED50, specific IgG2a production",10 mg/kg
same,ED50,"IgG2a production; read-out: ED50, total IgG2a production",30 mg/kg
"O=S(=O)(O)c1cc(N=C=S)ccc1C=Cc1ccc(N=C=S)cc1S(=O)(=O)O [DIDS, 4,4′-di-isothiocyanatostilbene-2,2′-disulphonate]",IC50,rat MCT1,50000 nM
"CC(C)Cn1c(=O)n(C)c(=O)c2cc(Cc3ccnc4ccccc34)sc21 [Ligand 3, 6-(4-quinolinylmethyl)--3-methyl-1-(2-methylpropyl)-thieno[2,3-d]pyrimidin-2,4(1H,3H)-dione]",IC50,[1],15.4 nM
same,IC50,MCT1,105 nM
O=C(CCc1ccc(O)cc1)c1c(O)cc(O)cc1O [phloretin],IC50,rat MCT1,1000 nM
"N#CC(=Cc1ccc(O)cc1)C(=O)O [CHC, α-cyano-4-hydroxycinnamate]",IC50,rat MCT1,27000 nM
"CON(C)C(=O)c1c(Cn2c(C)nc(Cl)c2Cl)sc2c1c(=O)n(C)c(=O)n2CC(C)C [Ligand 5, 6-[(4,5-Dichloro-2-methyl-1H-imidazol-1-yl)methyl]-1,2,3,4-tetrahydro-N-methoxy-N,3-dimethyl-1-(2-methylpropyl)-2,4-dioxo-thieno[2,3-d]pyrimidine-5-carboxamide]",IC50,activated T-lymphocytes [4],2.69 nM
same,IC50,"activated T-lymphocytes [2]; Homo sapiens, T-lymphocyte, Mean±s.e.mean (mean±range for n=2), read-out: pIA50 Extracellular Lactate (converted)",3.8 nM
same,EC50,activated T-lymphocytes [3],2.29 nM
same,IC50,[5],1.66 nM
